Measurements as given in patent US20100311671A1, “TRANSDERMAL DELIVERY OF PKC MODULATORY PEPTIDES THROUGH MI[…]” (Kai Pharmaceuticals, priority 2009, published 2010).

What was measured:
[1] = Transdermal delivery of conjugate to microporated rat skin, conjugate level in plasma by sandwich ELISA; assay type: in vivo, Male CD Hairless rats; settings: rats; for Intact conjugate present in the blood stream as a function of time: after application to microporated skin, blood draws over 2-3 hour period; for Transdermal delivery of the peptide conjugate: applied to microporated skin relative to intact skin, occluded
Protocol: The γV5 peptide RLVLAS (SEQ ID NO: 43) with an […] (Ac) end cap was attached by a GG linker to a TAT carrier peptide (SEQ ID NO: 46) and then the C-terminus was amidated (NH2) to form a conjugate identified as SEQ ID NO: 49. Transdermal delivery of this conjugate was performed as described in Example 1 except that a 1 cm^2 solid polymer microneedle array was used to microporate the skin and an aqueous reservoir patch was used to contact a 10% aqueous formulation of the conjugate with the microporated skin. Results are shown in FIG. 3, where the amount of conjugate in the blood, in ng/mL, is shown as a function of time.

[2] = microporated vs intact rat skin; 30 μm planar skin sections (FIG. 1A)
Text: Male CD Hairless rats were weighed (range: 300-500 grams) and anesthetized by inhaled isoflurane. The rats remained under anesthesia for the duration of the experiment and were sacrificed after the last blood draw. Rats were cannulated at a femoral or jugular vein for blood draws. A derma roller with 1.0 or 1.5 mm microneedles (Moohan Dr. Roller) was rolled across a 1 cm^2 area of skin on the dorsal trunk or waist by passing the roller over the skin 5 times with moderate pressure. Fifty μL of the cPKC inhibitor peptide [sequence] (SEQ ID NO:13) attached to a TAT carrier peptide to form the conjugate peptide identified as SEQ ID NO: 14 at 1% to 10% (10 to 100 mg/mL) was applied to the microporated skin and occluded with a 1 cm^2 piece of saran wrap. […] As a control, rats with intact skin (i.e., rats not subjected to the microneedle array) were also treated with the same peptide conjugate.
To analyze levels of the εPKC inhibitor peptide [sequence] (SEQ ID NO:13) in plasma, both ELISA on planar skin sections and a sandwich ELISA that uses antibodies that recognize different portions of the conjugate (the εPKC inhibitor peptide and the TAT carrier peptide) were employed.

Row | Molecule | Intact conjugate present in the blood stream as a function of time [1] | Transdermal delivery of the peptide conjugate [1] | Penetration of the peptide conjugate through the stratum corneum and into the underlying skin [2]
1 | CC[C@H](C)[C@H](NC(=O)[C@@H]1CCCN1C(=O)[C@H](C)NC(=O)[C@H](CC(=O)O)NC(=O)[C@H](Cc1c[nH]cn1)NC(C)=O)C(=O)NCC(=O)N[C@@H](Cc1ccc(O)cc1)C(=O)N[C@@H](CC(=O)O)C(=O)NCCCCCC(=O)N[C@@H](Cc1ccc(O)cc1)C(=O)NCC(=O)N[C@@H](CCCNC(=N)N)C(=O)N[C@@H](CCCCN)C(=O)N[C@@H](CCCCN)C(=O)N[C@@H](CCCNC(=N)N)C(=O)N[C@@H](CCCNC(=N)N)C(=O)N[C@@H](CCC(N)=O)C(=O)N[C@@H](CCCNC(=N)N)C(=O)N[C@@H](CCCNC(=N)N)C(=O)N[C@@H](CCCNC(=N)N)C(N)=O [SEQ ID NO: 19, AC-HDAPIGYD-AHX-YGRKKRRQRRR-NH2] | in an increasing amount with time | enhanced | –
2 | Ac-EAVSLKPTGGYGRKKRRQRRR-NH2 [SEQ ID NO: 14, Ac-EAVSLKPT GG YGRKKRRQRRR-NH2] | in an increasing amount with time | significantly enhanced | increased penetration
